Activity calls are given as the source filed them. The rule behind the calls is not given here.
Key:
[1] = target: Metabotropic glutamate receptor 1 (Homo sapiens) (UniProt Q13255); assay: Antagonist activity at human mGluR1 receptor expressed in CHOK1 cells assessed as inhibition of glutamate-mediated internal calcium mobilization; type: functional, cell-based; settings: CHO-K1
[2] = target: Metabotropic glutamate receptor 5 (Homo sapiens, UniProt P41594); assay: Antagonist activity at human mGluR5 receptor expressed in CHOK1 cells assessed as inhibition of glutamate-mediated internal calcium mobilization; type: functional, cell-based, CHO-K1
Metabotropic glutamate receptor 5, sequence (P41594 whole entry): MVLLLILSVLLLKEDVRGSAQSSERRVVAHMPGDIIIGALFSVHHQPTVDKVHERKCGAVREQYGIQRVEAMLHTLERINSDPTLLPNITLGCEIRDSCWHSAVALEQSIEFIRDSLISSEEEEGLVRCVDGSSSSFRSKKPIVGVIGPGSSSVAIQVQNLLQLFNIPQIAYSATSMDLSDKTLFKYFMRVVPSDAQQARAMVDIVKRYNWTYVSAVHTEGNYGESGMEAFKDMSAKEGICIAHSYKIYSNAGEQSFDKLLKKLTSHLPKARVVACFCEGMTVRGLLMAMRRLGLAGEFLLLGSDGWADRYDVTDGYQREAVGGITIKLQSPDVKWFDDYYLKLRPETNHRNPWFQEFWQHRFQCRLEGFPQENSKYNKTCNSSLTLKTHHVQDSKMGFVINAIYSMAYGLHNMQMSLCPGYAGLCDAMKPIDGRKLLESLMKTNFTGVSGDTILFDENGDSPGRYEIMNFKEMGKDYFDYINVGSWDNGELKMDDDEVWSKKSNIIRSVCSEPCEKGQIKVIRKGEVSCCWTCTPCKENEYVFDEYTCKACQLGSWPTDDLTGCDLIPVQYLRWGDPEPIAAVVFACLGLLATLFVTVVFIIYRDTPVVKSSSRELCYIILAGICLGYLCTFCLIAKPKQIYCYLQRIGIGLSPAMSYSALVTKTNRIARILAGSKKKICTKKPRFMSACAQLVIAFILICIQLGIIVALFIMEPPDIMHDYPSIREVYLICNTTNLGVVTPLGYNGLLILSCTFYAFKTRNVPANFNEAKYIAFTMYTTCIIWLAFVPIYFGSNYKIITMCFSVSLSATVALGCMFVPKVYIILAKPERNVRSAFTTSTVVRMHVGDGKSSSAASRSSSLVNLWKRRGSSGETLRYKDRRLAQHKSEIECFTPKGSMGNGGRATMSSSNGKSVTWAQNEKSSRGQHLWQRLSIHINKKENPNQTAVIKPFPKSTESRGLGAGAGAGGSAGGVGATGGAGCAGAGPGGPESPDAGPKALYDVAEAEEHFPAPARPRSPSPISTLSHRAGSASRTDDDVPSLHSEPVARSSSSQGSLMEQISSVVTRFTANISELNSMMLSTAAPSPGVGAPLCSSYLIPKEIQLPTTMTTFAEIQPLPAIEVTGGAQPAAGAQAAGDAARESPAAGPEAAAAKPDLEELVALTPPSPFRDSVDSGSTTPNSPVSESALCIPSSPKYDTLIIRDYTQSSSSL

Metabotropic glutamate receptor 1 (Homo sapiens), sequence (Q13255 19-1194 limits assumed): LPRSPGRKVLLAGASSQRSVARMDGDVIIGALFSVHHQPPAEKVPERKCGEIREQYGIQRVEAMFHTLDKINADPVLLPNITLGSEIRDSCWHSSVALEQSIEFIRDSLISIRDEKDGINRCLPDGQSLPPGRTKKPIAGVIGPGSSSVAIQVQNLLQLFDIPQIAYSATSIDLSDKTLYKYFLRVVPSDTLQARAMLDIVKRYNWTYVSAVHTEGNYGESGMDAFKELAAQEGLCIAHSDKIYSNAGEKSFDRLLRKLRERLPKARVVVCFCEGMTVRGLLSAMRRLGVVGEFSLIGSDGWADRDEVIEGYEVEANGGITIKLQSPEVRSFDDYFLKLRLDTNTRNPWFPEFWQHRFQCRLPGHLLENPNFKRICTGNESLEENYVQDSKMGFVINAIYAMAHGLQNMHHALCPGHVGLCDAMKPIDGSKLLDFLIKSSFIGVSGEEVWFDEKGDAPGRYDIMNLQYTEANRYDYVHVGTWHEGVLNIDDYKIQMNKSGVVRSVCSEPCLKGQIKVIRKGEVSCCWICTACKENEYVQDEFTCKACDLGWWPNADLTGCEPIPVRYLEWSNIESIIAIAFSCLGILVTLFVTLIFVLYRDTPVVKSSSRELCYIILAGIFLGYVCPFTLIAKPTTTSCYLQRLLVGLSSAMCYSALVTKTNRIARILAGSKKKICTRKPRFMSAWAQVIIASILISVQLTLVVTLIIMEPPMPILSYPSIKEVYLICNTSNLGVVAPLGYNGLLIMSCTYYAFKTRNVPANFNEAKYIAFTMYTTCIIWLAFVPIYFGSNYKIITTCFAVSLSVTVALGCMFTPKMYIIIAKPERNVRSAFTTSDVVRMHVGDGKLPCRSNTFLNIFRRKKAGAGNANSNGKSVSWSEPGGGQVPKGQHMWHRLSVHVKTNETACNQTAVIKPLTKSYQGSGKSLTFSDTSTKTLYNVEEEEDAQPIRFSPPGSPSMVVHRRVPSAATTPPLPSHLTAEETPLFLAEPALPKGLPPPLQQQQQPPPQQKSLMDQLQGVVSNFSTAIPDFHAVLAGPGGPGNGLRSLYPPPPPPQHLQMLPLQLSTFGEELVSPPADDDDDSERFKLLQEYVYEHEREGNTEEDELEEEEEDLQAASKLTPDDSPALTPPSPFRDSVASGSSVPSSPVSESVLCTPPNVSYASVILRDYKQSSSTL

Row | Compound | Activity [1] | IC50 ([2]; read-out: IC50) | IC50 ([2]; cho-k1)
1 | Cc1cnnc(C#Cc2cccc(Br)c2)n1 | inactive | 6 nM | –
2 | Cc1cnnc(C#Cc2cccc3ccccc23)n1 | inactive | 8900 nM | –
3 | Cc1cnc(C#Cc2ccccc2)nn1 | – | – | Not Active
4 | Cc1cnnc(C#Cc2ccc(C(F)(F)F)cc2)n1 | – | – | Not Active
5 | Cc1cnnc(C#Cc2cccc(C(F)(F)F)c2)n1 | inactive | 85 nM | –
6 | Cc1cnnc(C#Cc2ccccc2C)n1 | – | – | Not Active
7 | Cc1nncc(C#Cc2ccccc2)n1 | – | – | Not Active
8 | Cc1cnnc(C#Cc2ccc3c(c2)OCO3)n1 | – | – | Not Active
9 | Cc1ccc(C)c(C#Cc2nncc(C)n2)c1 | inactive | 1890 nM | –
10 | Cc1cnnc(C#Cc2cc(C(F)(F)F)cc(C(F)(F)F)c2)n1 | – | – | Not Active
11 | Cc1cnnc(C#Cc2ccc(-c3ccccc3)cc2)n1 | inactive | 510 nM | –

Other lines, results leading:

Row | Activity [1] | IC50 ([2]; read-out: IC50) | IC50 ([2]; cho-k1) | Compound
12 | inactive | 52 nM | – | Cc1cnnc(C#Cc2cccc(C#N)c2)n1
13 | inactive | 2.3 nM | – | Cc1cccc(C#Cc2nncc(C)n2)c1
14 | – | – | Not Active | Cc1cnnc(C#Cc2ccc3ccccc3c2)n1
15 | inactive | 96 nM | – | Cc1cnnc(C#Cc2cccc(F)c2)n1
16 | inactive | 80 nM | – | Cc1cnnc(C#Cc2ccc(Oc3ccccc3)cc2)n1
17 | inactive | 140 nM | – | Cc1cnnc(C#Cc2ccccc2)n1
18 | inactive | 132 nM | – | Cc1cnnc(C#Cc2ccc(F)c(C)c2)n1
19 | inactive | 4.2 nM | – | Cc1cnnc(C#Cc2cccc(Cl)c2)n1
20 | – | – | Not Active | COc1ccc(C#Cc2nncc(C)n2)c(C)c1
21 | inactive | 312 nM | – | COc1cccc(C#Cc2nncc(C)n2)c1
22 | – | – | Not Active | COc1ccccc1C#Cc1nncc(C)n1
23 | – | – | Not Active | Cc1cnnc(C#Cc2ccc(F)cc2F)n1
